Experimental findings from article PMC10584170, “Machine learning-based phenotypic imaging to characterise the targetable biology of Plasmodium falciparum male gametocytes for the development of transmission-blocking antimalarials” (PLOS Pathogens, 2023) are described below.

Test [1] has as its system P. falciparum female gametocytes. Put plainly: P. falciparum Dual Gamete Formation Assay (PfDGFA), female readout (Pfs25-positive female gametes). The test is classed as cell-based, Plasmodium falciparum NF54. The conditions noted are these: for % inhibition female (individual replicates) R1: replicate R1; for % inhibition female (individual replicates) R3: replicate R3; for % inhibition female (individual replicates) R4: replicate R4; for Average inhibition female (%): average of replicates. Summed up:
(§1)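 Read-outs are automated image counts of exflagellation centres (brightfield, 10 frames over 1 s) and Pfs25-positive female gametes (Cy3 fluorescence).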

In test [2] the test system is P. falciparum male gametocytes. In words: P. falciparum Dual Gamete Formation Assay (PfDGFA), male readout (exflagellation). The test is classed as cell-based, Plasmodium falciparum NF54. The conditions noted are these: for % inhibition male (individual replicates) R1: replicate R1; for % inhibition male (individual replicates) R3: replicate R3; for % inhibition male (individual replicates) R4: replicate R4; for Average inhibition male (%): average of replicates; for Activity: hit = >50% inhibition in male or female readout in at least 3 replicates, 0 = no class assigned. In a few lines:
as §1

Where [3] appears, read: PfDGFA at 2µM, 24h preincubation with gametocytes prior to induction of gametogenesis.
[4] abbreviates: PfDGFA at 2µM, 24h preincubation.
[5] abbreviates: PfDGFA at 2µM, 24h preincubation with gametocytes.
Where [6] appears, read: 2µM, 24h preincubation with gametocytes prior to induction of gametogenesis.
Setting [7] is: 2µM, 24h preincubation, number of replicates with >50% inhibition in the female readout.
[8] abbreviates: 2µM, 24h preincubation, number of replicates with >50% inhibition in the male readout.
Where [9] appears, read: 2µM, 24h preincubation with gametocytes.
Where [10] appears, read: 2µM, 24h preincubation, hits selected on >50% inhibition in the female readout across replicates.
[11] abbreviates: 2µM, 24h preincubation, hits selected on >50% inhibition in the male readout across replicates.

For `COc1ccc2ncc(F)c(CCN3CCC(NCc4cc(F)c5c(c4)OCCO5)CC3)c2n1.Cl` [TCMDC-135849], in test [1] (setting [3]), the “% inhibition female (individual replicates) R1” value stood at 9.2%, the “% inhibition female (individual replicates) R3” value is -25.5% and the “% inhibition female (individual replicates) R4” value was 10.6%. In test [1] (setting [4]), the “Average inhibition female (%)” value was -0.168%. Moreover, in test [2] (setting [3]), the “% inhibition male (individual replicates) R1” value is -15.0%, the “% inhibition male (individual replicates) R3” value is -30.0% and the “% inhibition male (individual replicates) R4” value is reported as -21.8%. In addition, the “Average inhibition male (%)” value in test [2] (setting [4]) is given as -22.8%.

On to `COc1ccc(-c2cnc3[nH]cc(-c4ccncc4)c3c2)cc1OC` [TCMDC-135853], for which, in test [1] (setting [5]), the “Average inhibition female (%)” value stood at 15.5%, the “% inhibition female (individual replicates) R1” value was found to be 9.0%, the “% inhibition female (individual replicates) R3” value is 36.4% and the “% inhibition female (individual replicates) R4” value amounted to 5.3%. For the same compound, the HitlevelF in test [1] (number of replicates with >50% inhibition in the female readout, 2µM) is reported as 0. In addition, in test [2] (setting [5]), the “Average inhibition male (%)” value was 73.2%, the “% inhibition male (individual replicates) R1” value was found to be 70.5%, the “% inhibition male (individual replicates) R3” value stood at 62.1% and the “% inhibition male (individual replicates) R4” value was 76.3%. The same compound gave a HitlevelM in test [2] (number of replicates with >50% inhibition in the male readout, 2µM) of 4.

For `CC(C)CN1CCC(COc2ccc3ncn(-c4cc(O[C@H](C)c5ccccc5C(F)(F)F)c(C(N)=O)s4)c3c2)CC1` [TCMDC-135856], in test [1] (setting [3]), the “% inhibition female (individual replicates) R1” value is given as -5.1%, the “% inhibition female (individual replicates) R3” value was 3.7% and the “% inhibition female (individual replicates) R4” value is -5.5%. Besides, the “Average inhibition female (%)” value in test [1] (setting [4]) is on record as -0.7%. In test [2] (setting [3]), the “% inhibition male (individual replicates) R1” value was 69.3% and the “% inhibition male (individual replicates) R4” value is -19.8%. In addition, the “Average inhibition male (%)” value in test [2] (setting [4]) is given as 39.0%.

For `COc1ccc2ccccc2c1CCCCN1CCN(CC(c2ccc(F)cc2)N2CCC(N3CCCC3)CC2)CC1.O=C(O)C(F)(F)F` (stereo not shown) [TCMDC-135866], in test [1] (setting [6]), the “Average inhibition female (%)” value is on record as 23.8%, the “% inhibition female (individual replicates) R1” value was 27.0%, the “% inhibition female (individual replicates) R3” value came out at 20.6% and the “% inhibition female (individual replicates) R4” value is reported as 10.9%. In test [1] (setting [7]), this compound showed a HitlevelF of 0. In test [2] (setting [6]), the “Average inhibition male (%)” value is on record as 26.2%, the “% inhibition male (individual replicates) R1” value worked out at 24.9%, the “% inhibition male (individual replicates) R3” value came to 0.4% and the “% inhibition male (individual replicates) R4” value turned out to be 58.9%. In test [2] (setting [8]), this compound gave a HitlevelM of 1.

In the case of `COc1ccc2ccccc2c1CCCCN1CCN(CC(c2ccc(F)cc2)N2CCC2)CC1.O=C(O)C(F)(F)F` (stereo not shown) [TCMDC-135867], in test [1] (setting [6]), the “Average inhibition female (%)” value worked out at 37.8%, the “% inhibition female (individual replicates) R1” value is recorded as 32.4%, the “% inhibition female (individual replicates) R3” value is 22.8% and the “% inhibition female (individual replicates) R4” value is reported as 37.2%. This compound had a HitlevelF in test [1] (setting [7]) of 1. Besides, in test [2] (setting [6]), the “Average inhibition male (%)” value turned out to be 8.0%, the “% inhibition male (individual replicates) R1” value was -5.9%, the “% inhibition male (individual replicates) R3” value is on record as -10.3% and the “% inhibition male (individual replicates) R4” value was 17.6%. The compound further returned a HitlevelM in test [2] (setting [8]) of 0.

For `Cc1c(OC(C)C)nc2ccccc2c1C(=O)N[C@H](c1cccc(F)c1)C1CC1` [TCMDC-135994], in test [1] (setting [3]), the “% inhibition female (individual replicates) R1” value worked out at 11.9%, the “% inhibition female (individual replicates) R3” value is -14.7% and the “% inhibition female (individual replicates) R4” value is on record as 16.8%. In addition, in test [1] (setting [4]), the “Average inhibition female (%)” value turned out to be 1.3%. Moreover, in test [2] (setting [3]), the “% inhibition male (individual replicates) R1” value was found to be 5.7%, the “% inhibition male (individual replicates) R3” value was found to be 14.1% and the “% inhibition male (individual replicates) R4” value was determined as 25.6%. Further, the “Average inhibition male (%)” value in test [2] (setting [4]) is given as 14.7%.

With `CCn1c(-c2nonc2N)nc2c(-c3ccccc3)ncc(OCCCCNCCc3ncc[nH]3)c21.O=C(O)C(F)(F)F` [TCMDC-136000], in test [1] (setting [9]), the “Average inhibition female (%)” value is given as 36.6%, the “% inhibition female (individual replicates) R1” value was 29.5%, the “% inhibition female (individual replicates) R3” value amounted to 30.1% and the “% inhibition female (individual replicates) R4” value came out at 56.9%. In test [2] (setting [9]), the “Average inhibition male (%)” value is listed as 92.8%, the “% inhibition male (individual replicates) R1” value was 92.7%, the “% inhibition male (individual replicates) R3” value was determined as 86.1% and the “% inhibition male (individual replicates) R4” value was 98.9%.

Take `COc1ccc2ncc(F)c(CCN3C[C@H](CNCc4nc5c(cc4Cl)OCC(=O)N5)[C@H](O)C3)c2n1.Cl` [TCMDC-136031]: in test [1] (setting [6]), the “Average inhibition female (%)” value is given as 9.3%, the “% inhibition female (individual replicates) R1” value was 13.9%, the “% inhibition female (individual replicates) R3” value is recorded as -6.7% and the “% inhibition female (individual replicates) R4” value is given as 27.7%. Besides, in test [1] (setting [10]), the HitlevelF is 0. Further, in test [2] (setting [6]), the “Average inhibition male (%)” value is 6.8%, the “% inhibition male (individual replicates) R1” value is 19.6%, the “% inhibition male (individual replicates) R3” value is recorded as -8.5% and the “% inhibition male (individual replicates) R4” value was 9.5%. Besides, the HitlevelM in test [2] (setting [11]) is reported as 0. The Activity in test [2] (setting [4]) was determined as 0.

On to `COc1ccc2nccc([C@H](O)CN3CCC(NCc4ccc5c(c4C)OCCO5)CC3)c2n1.Cl` [TCMDC-136066], for which, in test [1] (setting [6]), the “Average inhibition female (%)” value worked out at 6.6%, the “% inhibition female (individual replicates) R1” value was found to be 21.2%, the “% inhibition female (individual replicates) R3” value is -26.0% and the “% inhibition female (individual replicates) R4” value worked out at 9.8%. In test [1] (setting [10]), this compound came in with a HitlevelF of 0. Further, in test [2] (setting [6]), the “Average inhibition male (%)” value is reported as -9.6%, the “% inhibition male (individual replicates) R1” value is given as -4.0%, the “% inhibition male (individual replicates) R3” value is -34.1% and the “% inhibition male (individual replicates) R4” value was found to be 0.2%. This compound also came in with a HitlevelM in test [2] (setting [11]) of 0. Further, in test [2] (setting [4]), the Activity was 0.

For the compound `Cn1cc(CN2CCC(OC(c3ccccc3)c3ccc(Cl)cc3)CC2)cn1` (stereo not shown) [TCMDC-136165], in test [1] (setting [6]), the “Average inhibition female (%)” value came to 27.9%, the “% inhibition female (individual replicates) R1” value worked out at 28.0%, the “% inhibition female (individual replicates) R3” value was 20.7% and the “% inhibition female (individual replicates) R4” value is 33.3%. For the same compound, the HitlevelF in test [1] (setting [7]) was found to be 0. In test [2] (setting [6]), the “Average inhibition male (%)” value is 26.9%, the “% inhibition male (individual replicates) R1” value was determined as 21.0%, the “% inhibition male (individual replicates) R3” value is 11.7% and the “% inhibition male (individual replicates) R4” value was found to be 55.6%. Further, in test [2] (setting [8]), the HitlevelM is 1.

Turning to `CCn1c(-c2nonc2N)nc2c(-c3cccc(NC(=O)Nc4ccccc4OC)c3)ncc(OCCCN)c21.O=C(O)C(F)(F)F` [TCMDC-136190], in test [1] (setting [6]), the “Average inhibition female (%)” value came to 31.3%, the “% inhibition female (individual replicates) R1” value was 29.0%, the “% inhibition female (individual replicates) R3” value was 9.1% and the “% inhibition female (individual replicates) R4” value turned out to be 20.1%. In test [1] (setting [7]), this compound registered a HitlevelF of 1. In test [2] (setting [6]), the “Average inhibition male (%)” value amounted to 38.6%, the “% inhibition male (individual replicates) R1” value is 46.0%, the “% inhibition male (individual replicates) R3” value was determined as 15.9% and the “% inhibition male (individual replicates) R4” value is reported as 54.2%. In test [2] (setting [8]), this compound displayed a HitlevelM of 1.

As to `Cc1[nH]cc(Br)c(=O)c1-c1ccc(Oc2ccc(OC(F)(F)F)cc2)cc1` [TCMDC-136197], in test [1] (setting [6]), the “Average inhibition female (%)” value is reported as 8.0%, the “% inhibition female (individual replicates) R1” value turned out to be 22.6%, the “% inhibition female (individual replicates) R3” value is 0.02% and the “% inhibition female (individual replicates) R4” value was -5.7%. Also, the HitlevelF in test [1] (setting [10]) was 0. Further, in test [2] (setting [6]), the “Average inhibition male (%)” value was -14.5%, the “% inhibition male (individual replicates) R1” value is on record as -14.1%, the “% inhibition male (individual replicates) R3” value is on record as -25.2% and the “% inhibition male (individual replicates) R4” value was -5.8%. Also, in test [2] (setting [11]), the HitlevelM turned out to be 0. Also, the Activity in test [2] (setting [4]) is given as 0.

`Cl.c1ccc2c(C3CCN(CCCCOc4ccc5c(c4)CCN(CC4CC4)CC5)CC3)c[nH]c2c1` [TCMDC-136244]: in test [1] (setting [6]), the “Average inhibition female (%)” value was 24.9%, the “% inhibition female (individual replicates) R1” value stood at 21.4%, the “% inhibition female (individual replicates) R3” value is 5.1% and the “% inhibition female (individual replicates) R4” value is 24.5%. For the same compound, in test [1] (setting [7]), the HitlevelF is recorded as 0. In addition, in test [2] (setting [6]), the “Average inhibition male (%)” value is recorded as 8.5%, the “% inhibition male (individual replicates) R1” value is on record as 7.6%, the “% inhibition male (individual replicates) R3” value is reported as -1.4% and the “% inhibition male (individual replicates) R4” value is listed as 14.2%. The same compound came in with a HitlevelM in test [2] (setting [8]) of 0.
